Measured values from patent publication US20230317203A1, “SCREENING METHOD” (University of Leeds, priority 2022, published 2023).
Where two headings read alike, the source gives them in different places. Blank lines part the entries; values can stand above or below the molecule they belong to.

Experiments:
BRISC [1] = molecular target: T1, BRISC (Homo sapiens, UniProt P46736+Q15018+Q9NXR7); assay: IQF K63-linked diUb DUB activity assay, BRISC; format: biochemical; design: made in house; host or cells: Spodoptera frugiperda (Sf9) insect cells; details: for inhibition of BRISC DUB activity: IQF assay, BRISC 1 nM
Method: (§1) BRISC complexes were tested for activity in DUB reaction buffer containing 50 mM HEPES-NaOH pH 7.0, 100 mM NaCl, 0.1 mg/mL BSA, 1 mM DTT, and 0.003% Brij-35. […] Inhibitors were assayed at concentrations up to 200 μM. 20 μL enzyme reactions were carried out in 384-well black flat-bottom low flange plates (Corning; 35373). DUB activity was measured using internally quenched fluorescent (IQF) K63-linked diUb (Lifesensors, catalogue number: DU6303) at 50 or 100 nM. Cleaved diUb was monitored by measuring fluorescence intensity (Ex. 540 nm, Em. 580 nm; dichroic mirror 560 nm). Fluorescence intensity was measured every minute for 30 minutes at 30° C. Fluorescence intensity units for the first 10 minutes were plotted against time to generate a linear reaction progress curve, where the initial velocity (v0) corresponds to the gradient of the curve. IC50 values were calculated using the GraphPad Prism (v8.0) built-in dose-response equation for inhibitor concentration vs. response (variable slope).
(§2) A high throughput biochemical screen was designed to identify inhibitors of BRISC, based on the ability of small molecules to inhibit BRISC cleavage of a K63-linked di-ubiquitin substrate. The di-ubiquitin substrate is designed with a fluorescent TAMRA dye on the proximal ubiquitin moiety and fluorescence quencher on the distal ubiquitin molecule (FIG. 1A). Upon isopeptidase bond cleavage, fluorescence is detected, enabling continuous fluorescent readout of deubiquitylase activity over time (FIG. 1A). The assay conditions were optimised and used to test an in-house compound library comprising of ˜300 published and custom-made kinase inhibitors. From this screen, two hits were identified, compounds AT7519 (well H20) and YM201636 (well P12) (FIG. 1B). The specificity of these compounds was assessed against the broad-spectrum DUB ubiquitin-specific protease-2 (USP2) and the serine protease trypsin which cleave K63-Ub substrate under the same conditions. […] UV-Vis spectroscopy analyses of the compound in well H20 used in the screen compared to the Synkinase and Sellechem AT7519 compounds identified an additional peak in the H20 spectra (FIG. 5C). […] The synthesis of the two isomers was confirmed using mass spectrometry fragmentation analyses (FIG. 5E) and the inhibitory effect of the isomers was tested against BRISC.

USP2 = USP2 (Homo sapiens, UniProt O75604); assay: IQF di-ubiquitin assay, USP2 specificity; format: biochemical; details: USP2 100 nM, K63-Ub substrate
Sequence of USP2 (O75604 whole entry, species assumed): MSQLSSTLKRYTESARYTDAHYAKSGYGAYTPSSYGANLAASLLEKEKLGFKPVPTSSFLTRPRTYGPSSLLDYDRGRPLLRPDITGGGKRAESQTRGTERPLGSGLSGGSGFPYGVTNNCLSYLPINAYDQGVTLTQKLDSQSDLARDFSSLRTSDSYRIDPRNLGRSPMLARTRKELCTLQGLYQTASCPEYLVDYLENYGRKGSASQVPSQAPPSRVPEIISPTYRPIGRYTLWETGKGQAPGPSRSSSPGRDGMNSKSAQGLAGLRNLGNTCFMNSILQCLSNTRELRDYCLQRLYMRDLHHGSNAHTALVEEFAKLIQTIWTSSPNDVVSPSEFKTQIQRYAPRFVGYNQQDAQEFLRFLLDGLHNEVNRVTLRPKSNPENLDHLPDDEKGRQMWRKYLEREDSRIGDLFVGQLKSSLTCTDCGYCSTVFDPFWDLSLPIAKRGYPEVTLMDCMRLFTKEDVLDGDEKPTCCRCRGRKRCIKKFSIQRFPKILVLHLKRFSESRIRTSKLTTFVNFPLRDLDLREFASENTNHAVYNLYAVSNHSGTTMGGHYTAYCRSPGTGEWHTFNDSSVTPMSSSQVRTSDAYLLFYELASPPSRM
From the text: (§3) FIGS. 5A-5E show validation of hit compounds.
as §2

Trypsin = assay: IQF di-ubiquitin assay, trypsin specificity; format: biochemical; details: Trypsin 125 nM, K63-Ub substrate
From the text: as §3, §2

AMSH-LP = molecular target: T2, AMSH-LP (Homo sapiens, UniProt Q96FJ0); assay: IQF assay with JAMM/MPN DUB AMSH-LP; format: biochemical; details: FIG. 1E
T2 sequence (Q96FJ0 1-436): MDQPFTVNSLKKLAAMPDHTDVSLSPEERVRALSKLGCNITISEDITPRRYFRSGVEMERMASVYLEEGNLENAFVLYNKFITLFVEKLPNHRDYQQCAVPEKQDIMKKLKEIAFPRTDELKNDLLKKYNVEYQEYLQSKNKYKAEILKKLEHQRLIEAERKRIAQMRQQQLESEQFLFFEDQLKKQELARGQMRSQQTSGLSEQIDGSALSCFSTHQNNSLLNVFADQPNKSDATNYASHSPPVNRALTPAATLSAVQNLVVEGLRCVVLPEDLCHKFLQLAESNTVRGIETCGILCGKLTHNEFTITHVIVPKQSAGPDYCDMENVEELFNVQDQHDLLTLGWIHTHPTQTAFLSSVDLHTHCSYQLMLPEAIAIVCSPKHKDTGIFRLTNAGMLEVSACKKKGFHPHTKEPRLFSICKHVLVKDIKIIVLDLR
From the text: (§4) FIGS. 1A-1F show the development a high-throughput screen to identify first-in-class DUB inhibitors. FIG. 1A depicts a diagram of a TAMRA-linked IQF di-ubiquitin substrate (left) and BRISC DUB activity against a fluorescent K63-linked substrate (right).

ARISC = ARISC (Homo sapiens, UniProt P46736+Q6UWZ7+Q9NXR7); assay: IQF assay with ARISC; format: biochemical; details: FIG. 1E
From the text: as §4

ARISC-RAP80 = ARISC-RAP80 (Homo sapiens, UniProt P46736+Q6UWZ7+Q9NXR7); assay: IQF assay with ARISC-RAP80; format: biochemical; details: FIG. 1E
From the text: as §4

BRISC [2] = molecular target: T1, BRISC; assay: Mass photometry of BRISC oligomeric state; format: binding; details: purified BRISC mixed with inhibitor, FIG. 2B
Method: (§5) Microscope coverslips were prepared as previously described^33. All mass photometry experiments were performed using a One^MP mass photometer (Refeyn Ltd, Oxford, UK). For preliminary BRISC-inhibitor measurements, 1 μM BRISC(FL) was mixed with either DMSO or inhibitor at 330 μM and incubated for 15 minutes on ice. Prior to MP measurement, the BRISC-inhibitor mix was diluted in gel filtration buffer (25 mM HEPES, 150 mM NaCl, 1 mM TCEP) for a final concentration of BRISC at 10 nM (0.05% DMSO). 12 μL of this dilution was used for the final MP measurement, following autofocus stabilisation. […] The BRISC-inhibitor mix was used directly for MP measurement using buffer-free autofocus stabilisation. Movies were recorded for 60 seconds using AcquireMP (Refeyn, UK), and were processed using DiscoverMP (Refeyn, UK). Mass photometry image processing has been previously described^33. Briefly, contrast-to-mass (C2M) calibration was performed using protein standards (66-669 kDa) diluted in gel filtration buffer. […] The mass distribution from each run is in a histogram, where count refers to each landing event and a Gaussian sum is fitted to the data. The relative amount of each species is calculated as the area of each Gaussian, where a refers to the standard deviation of the fitted Gaussian. […] Curves were fitted and EC50 values were calculated using the GraphPad Prism (v8.0) built-in dose-response equation for concentration of agonist vs. response (variable slope).

BRISC [3] = assay: Mass photometry of BRISC oligomeric state; format: binding, human; details: mass photometry
Method: as §5

BRISC(FL) = molecular target: T3, BRISC(FL) (Homo sapiens, UniProt P46736+Q15018+Q9NXR7); assay: Native mass spectrometry of BRISC with inhibitor; format: binding; details: 10 μM BRISC(FL), 1 mM inhibitor
T3 construct: The four-subunit human BRISC (full-length (FL) and MERIT40ΔN, Abraxas2ΔC) complex was cloned; made in house; host or cells: Spodoptera frugiperda (Sf9) insect cells
Method: Samples were buffer exchanged into 500 mM ammonium acetate using Zeba Spin 7K MWCO desalting columns (ThermoFisher). Gold and palladium coated nanospray tips were prepared in-house and mounted on the nano-electrospray ionisation source. Mass spectra were acquired on a Q Exactive Ultra-High Mass Range Hybrid Quadrupole-Orbitrap mass spectrometer (Thermo Fisher), optimised for mass resolution at high m/z ratios. Data were visualised and processed using Mass Lynx (v4.1) and UniDec (v2.7.1).

BRISC BRCC36 Trp130Ala = BRISC BRCC36 Trp130Ala (Homo sapiens, UniProt P46736+Q15018+Q9NXR7, W130A); assay: IQF DUB assay, BRISC mutant BRCC36 Trp130Ala; format: biochemical; details: FIG. 4C
Method: (§6) The four-subunit human BRISC (full-length (FL) and MERIT40ΔN, Abraxas2ΔC) complex was cloned using the MultiBac system and co-expressed in Spodoptera frugiperda (Sf9) insect cells^32. BRISC mutants were cloned into pFastBac vectors in the Bac-to-Bac system (ThermoFisher), baculoviruses generated in Sf9 cells and used for co-infection of Trichoplusia ni (Tni) cells. All BRISC complexes were purified as previously described^12,13.
as §1, with “20 μL enzyme reactions were carried out in 384-well black flat-bottom low flange plates (Corning; 35373).” left out, “slope). […]” for “slope).”

BRISC BRCC36 Leu169Ala = BRISC BRCC36 Leu169Ala (Homo sapiens, UniProt P46736+Q15018+Q9NXR7, L169A); assay: IQF DUB assay, BRISC mutant BRCC36 Leu169Ala; format: biochemical; details: FIG. 4C
Method: as §6
as §1, with “20 μL enzyme reactions were carried out in 384-well black flat-bottom low flange plates (Corning; 35373).” left out, “slope). […]” for “slope).”

BRISC Abraxas2 Thr140Ala = BRISC Abraxas2 Thr140Ala (Homo sapiens, UniProt P46736+Q15018+Q9NXR7, T140A); assay: IQF DUB assay, BRISC mutant Abraxas2 Thr140Ala; format: biochemical; details: FIG. 4C
Method: as §6
as §1, with “20 μL enzyme reactions were carried out in 384-well black flat-bottom low flange plates (Corning; 35373).” left out, “slope). […]” for “slope).”

BRISC [4] = molecular target: T1, BRISC; design: made in house; host or cells: Spodoptera frugiperda (Sf9) insect cells; details: BRISC WT, reference 13; cited from earlier work

Molecule: O=C(NC1CCN(C(=O)c2c(Cl)cccc2Cl)CC1)c1n[nH]cc1NC(=O)c1c(Cl)cccc1Cl [AP-5-144]
- inhibition of BRISC DUB activity (BRISC [1]): no inhibition

Molecule: O=C(NC1CCNCC1)c1nn(C(=O)c2c(Cl)cccc2Cl)cc1NC(=O)c1c(Cl)cccc1Cl [JMS-175-2]
- inhibition of AMSH-LP (AMSH-LP): no inhibition
- specificity for BRISC over ARISC (ARISC): specifically inhibits BRISC over
- specificity for BRISC over ARISC-RAP80 (ARISC-RAP80): specifically inhibits BRISC over
- mass photometry counts, 1:1:1:1 complex (BRISC [2]): 8%
- mass photometry counts, dimer (BRISC [2]): 69%
- mass photometry counts, monomer (BRISC [2]): 14%
- dimer formation at increasing inhibitor concentration (BRISC [3]): dose-dependent increase in dimer formation
- BRISC species by native mass spectrometry (BRISC(FL)): BRISC dimers with a MW consistent with a 4:4:4:4 stoichiometry were observed
- IC50 (BRISC [1]; IQF K63-linked diUb substrate, FIG. 1D, read-out: IC50 inhibiting BRISC): 1500 nM
- inhibition of BRISC DUB activity (BRISC [1]): specific inhibition

B1: serine hydroxymethyltransferase (protein)
chain: QLVRMAIRAQHSNAAQTQTGEANRGWTGQESLSDSDPEMWELLQREKDRQCRGLELIASENFCSRAALEALGSCLNNKYSEGYPGKRYYGGAEVVDEIELLCQRRALEAFDLDPAQWGVNVQPYSGSPANLAVYTALLQPHDRIMGLDLPDGGHLTHGYMSDVKRISATSIFFESMPYKLNPKTGLIDYNQLALTARLFRPRLIIAGTSAYARLIDYARMREVCDEVKAHLLADMAHISGLVAAKVIPSPFKHADIVTTTTHKTLRGARSGLIFYRKGVKAVDPKTGREIPYTFEDRINFAVFPSLQGGPHNHAIAAVAVALKQACTPMFREYSLQVLKNARAMADALLERGYSLVSGGTDNHLVLVDLRPKGLDGARAERVLELVSITANKNTCPGDRSAITPGGLRLGAPALTSRQFREDDFRRVVDFIDEGVNIGLEVKSKTAKLQDFKSFLLKDSETSQRLANLRQRVEQFARAFPMPGFDEH
- inhibition in the presence of SHMT2 (BRISC BRCC36 Trp130Ala): reduced inhibition
- inhibition in the presence of SHMT2 (BRISC BRCC36 Leu169Ala): reduced inhibition
- inhibition in the presence of SHMT2 (BRISC Abraxas2 Thr140Ala): reduced inhibition
- inhibition of BRISC DUB activity (BRISC [4]): potent inhibitor

Now from value to molecule, other results behind:

- inhibition of USP2 (USP2): inhibited
- inhibition of BRISC DUB activity (BRISC [1]): inhibited
Molecule: Nc1ccc(C(=O)Nc2cccc(-c3nc(N4CCOCC4)c4oc5ncccc5c4n3)c2)cn1 [YM201636]
- inhibition of trypsin (Trypsin): inhibited

- inhibition of BRISC DUB activity (BRISC [1]): neither were found to inhibit
Molecule: O=C(NC1CCNCC1)c1[nH]ncc1NC(=O)c1c(Cl)cccc1Cl [AT7519, reference compound]
